Data on 1 compound can be found in paper PMC3134342 (Journal of Experimental Botany, 2011).

The target in one assay is T1, At-A/N-InvA (Arabidopsis thaliana, UniProt Q9FXA8).
T1 sequence (Q9FXA8 79-616): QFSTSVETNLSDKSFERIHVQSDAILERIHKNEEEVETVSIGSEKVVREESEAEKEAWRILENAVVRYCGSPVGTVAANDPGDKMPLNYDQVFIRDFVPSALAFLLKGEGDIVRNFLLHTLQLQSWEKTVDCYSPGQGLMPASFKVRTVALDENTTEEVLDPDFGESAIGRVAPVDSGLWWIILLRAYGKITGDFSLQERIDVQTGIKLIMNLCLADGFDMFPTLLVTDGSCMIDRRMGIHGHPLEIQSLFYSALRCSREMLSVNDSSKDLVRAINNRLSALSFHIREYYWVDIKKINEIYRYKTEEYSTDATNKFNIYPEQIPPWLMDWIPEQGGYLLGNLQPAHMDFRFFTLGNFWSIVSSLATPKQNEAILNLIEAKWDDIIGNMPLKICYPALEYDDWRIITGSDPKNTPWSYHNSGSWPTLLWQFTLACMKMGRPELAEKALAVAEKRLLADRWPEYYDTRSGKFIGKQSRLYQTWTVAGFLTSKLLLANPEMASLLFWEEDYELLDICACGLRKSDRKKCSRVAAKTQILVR
Nature of the assay: inhibition of sucrose hydrolysis, fructose by HPAEC-PAD. Conditions: 100 mM sucrose, 50 mM potassium phosphate, pH 8.2, 30 °C. Format: biochemical.

The next assay has as its target T2, At-A/N-InvG (Arabidopsis thaliana, UniProt Q9LQF2).
T2 sequence (Q9LQF2 1-551): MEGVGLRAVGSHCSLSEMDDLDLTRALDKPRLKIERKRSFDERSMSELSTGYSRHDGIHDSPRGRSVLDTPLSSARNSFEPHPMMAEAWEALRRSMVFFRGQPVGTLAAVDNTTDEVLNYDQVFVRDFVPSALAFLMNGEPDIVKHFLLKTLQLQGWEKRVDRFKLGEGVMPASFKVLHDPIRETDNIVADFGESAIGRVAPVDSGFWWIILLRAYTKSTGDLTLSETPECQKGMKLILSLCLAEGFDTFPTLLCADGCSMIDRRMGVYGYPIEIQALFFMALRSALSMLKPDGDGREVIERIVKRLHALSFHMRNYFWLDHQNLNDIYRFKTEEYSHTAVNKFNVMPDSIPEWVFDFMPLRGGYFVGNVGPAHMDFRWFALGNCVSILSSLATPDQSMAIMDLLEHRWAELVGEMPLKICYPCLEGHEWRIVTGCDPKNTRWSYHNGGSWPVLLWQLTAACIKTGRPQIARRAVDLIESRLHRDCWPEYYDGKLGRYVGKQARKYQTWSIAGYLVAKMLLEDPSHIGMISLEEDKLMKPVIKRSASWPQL
The assay is described as above. Type of assay: biochemical.

As to `NC(CO)(CO)CO` [TRIS], the “activity vs TRIS concentration” value on At-A/N-InvA is “A typical inhibitory effect of TRIS on At-A/N-InvA activity was found”. At At-A/N-InvG, the IC50 lay in the range of 25 to 30 mM.
